pEC50, pIC50: −log10 of the molar value. “And” between values parts separate entries of the source, which are not always exact repeats. Equal entries are not always repeated.
Tests used:
[1] = tested on: cyclin K–eGFP degradation reporter; test: Cyclin K reporter stability analysis (dual-color cyclin K–eGFP reporter); assay type: cell-based, human; details: for reporter assay signal (normalized): replicates; for Normalized GFP/mCheery: flow source data
How it was run: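 Readout was the eGFP-to-mCherry geometric-mean ratio by flow cytometry, normalized to three DMSO controls, after 5 h drug exposure. Cells used were HEK293T–Cas9 expressing the dual-colour cyclin K–eGFP degradation reporter.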

CDK12–cyclin K = CDK12–cyclin K (Homo sapiens, UniProt Q9NYV4); test: Lanthascreen kinase binding assay, CDK12; details: for Lanthascreen raw signal, sheet CDK12: duplicates
Sequence of CDK12–cyclin K (Q9NYV4 713-1052): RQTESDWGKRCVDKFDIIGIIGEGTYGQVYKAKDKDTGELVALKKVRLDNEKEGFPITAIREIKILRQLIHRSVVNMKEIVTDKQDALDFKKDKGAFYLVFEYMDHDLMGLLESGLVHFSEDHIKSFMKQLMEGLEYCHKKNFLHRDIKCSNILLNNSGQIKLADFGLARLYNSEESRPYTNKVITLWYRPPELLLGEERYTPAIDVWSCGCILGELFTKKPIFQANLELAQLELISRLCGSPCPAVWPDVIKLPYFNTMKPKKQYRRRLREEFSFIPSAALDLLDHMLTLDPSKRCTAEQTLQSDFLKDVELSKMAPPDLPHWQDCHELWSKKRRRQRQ
Sequence of CDK12–cyclin K (O75909 1-267 partner limits assumed): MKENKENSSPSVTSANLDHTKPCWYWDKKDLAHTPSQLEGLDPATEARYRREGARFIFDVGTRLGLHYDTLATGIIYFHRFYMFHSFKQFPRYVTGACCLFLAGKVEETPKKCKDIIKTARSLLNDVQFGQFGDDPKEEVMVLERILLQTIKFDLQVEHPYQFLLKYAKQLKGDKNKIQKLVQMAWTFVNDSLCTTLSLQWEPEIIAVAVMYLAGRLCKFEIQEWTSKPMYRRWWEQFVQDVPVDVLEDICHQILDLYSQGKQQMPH
Method: Lanthascreen experiments were performed using commercially available reagents (Thermo Fisher) and according to the manufacturer’s instructions.

CDK13 = biological target: T1, CDK13 (Homo sapiens, UniProt Q14004+Q16531); test: Label-free quantitative mass spectrometry in MDA-MB-231 cells, CDK13; assay type: cell-based
T1 construct: endogenous in cells; host or cells: MDA-MB-231
T1 sequence (Q14004 whole entry): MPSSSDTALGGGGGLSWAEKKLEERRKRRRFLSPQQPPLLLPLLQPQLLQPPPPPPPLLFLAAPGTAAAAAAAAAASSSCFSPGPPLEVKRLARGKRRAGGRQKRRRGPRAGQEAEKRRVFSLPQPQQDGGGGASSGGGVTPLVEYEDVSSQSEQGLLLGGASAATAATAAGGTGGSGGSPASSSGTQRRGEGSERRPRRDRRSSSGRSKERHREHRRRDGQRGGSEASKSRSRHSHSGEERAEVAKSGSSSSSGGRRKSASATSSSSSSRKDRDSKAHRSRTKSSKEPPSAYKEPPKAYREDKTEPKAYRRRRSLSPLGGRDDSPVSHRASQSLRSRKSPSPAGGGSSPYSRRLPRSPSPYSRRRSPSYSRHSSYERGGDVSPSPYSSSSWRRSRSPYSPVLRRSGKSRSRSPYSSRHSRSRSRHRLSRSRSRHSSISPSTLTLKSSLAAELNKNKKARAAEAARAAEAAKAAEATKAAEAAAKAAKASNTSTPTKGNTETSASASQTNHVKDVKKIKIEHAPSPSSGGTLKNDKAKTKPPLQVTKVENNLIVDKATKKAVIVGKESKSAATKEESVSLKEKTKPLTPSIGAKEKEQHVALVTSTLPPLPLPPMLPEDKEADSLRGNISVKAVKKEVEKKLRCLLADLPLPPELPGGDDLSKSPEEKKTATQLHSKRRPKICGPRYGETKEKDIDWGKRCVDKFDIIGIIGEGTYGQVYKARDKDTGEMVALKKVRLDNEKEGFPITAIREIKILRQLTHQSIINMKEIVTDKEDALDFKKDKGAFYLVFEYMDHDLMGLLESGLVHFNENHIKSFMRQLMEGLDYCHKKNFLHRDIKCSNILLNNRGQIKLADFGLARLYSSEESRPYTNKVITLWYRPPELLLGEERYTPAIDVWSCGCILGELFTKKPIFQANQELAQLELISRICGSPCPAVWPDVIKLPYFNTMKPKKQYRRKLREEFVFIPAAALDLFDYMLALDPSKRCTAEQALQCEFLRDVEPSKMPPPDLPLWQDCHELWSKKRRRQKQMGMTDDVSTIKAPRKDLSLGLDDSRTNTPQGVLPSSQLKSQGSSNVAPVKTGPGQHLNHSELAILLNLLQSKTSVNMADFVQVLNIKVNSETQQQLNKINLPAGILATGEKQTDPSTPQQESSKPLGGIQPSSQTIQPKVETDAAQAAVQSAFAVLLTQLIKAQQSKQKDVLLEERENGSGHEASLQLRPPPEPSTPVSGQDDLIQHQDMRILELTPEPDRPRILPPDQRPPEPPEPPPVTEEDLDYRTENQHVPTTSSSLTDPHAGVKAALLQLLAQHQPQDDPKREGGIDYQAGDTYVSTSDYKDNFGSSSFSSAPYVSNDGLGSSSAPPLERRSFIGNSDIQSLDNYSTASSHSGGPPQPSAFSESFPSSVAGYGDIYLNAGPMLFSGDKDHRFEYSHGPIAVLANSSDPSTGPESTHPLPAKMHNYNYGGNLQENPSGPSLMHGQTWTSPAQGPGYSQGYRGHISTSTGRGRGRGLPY
T1 sequence (O75909 whole entry partner): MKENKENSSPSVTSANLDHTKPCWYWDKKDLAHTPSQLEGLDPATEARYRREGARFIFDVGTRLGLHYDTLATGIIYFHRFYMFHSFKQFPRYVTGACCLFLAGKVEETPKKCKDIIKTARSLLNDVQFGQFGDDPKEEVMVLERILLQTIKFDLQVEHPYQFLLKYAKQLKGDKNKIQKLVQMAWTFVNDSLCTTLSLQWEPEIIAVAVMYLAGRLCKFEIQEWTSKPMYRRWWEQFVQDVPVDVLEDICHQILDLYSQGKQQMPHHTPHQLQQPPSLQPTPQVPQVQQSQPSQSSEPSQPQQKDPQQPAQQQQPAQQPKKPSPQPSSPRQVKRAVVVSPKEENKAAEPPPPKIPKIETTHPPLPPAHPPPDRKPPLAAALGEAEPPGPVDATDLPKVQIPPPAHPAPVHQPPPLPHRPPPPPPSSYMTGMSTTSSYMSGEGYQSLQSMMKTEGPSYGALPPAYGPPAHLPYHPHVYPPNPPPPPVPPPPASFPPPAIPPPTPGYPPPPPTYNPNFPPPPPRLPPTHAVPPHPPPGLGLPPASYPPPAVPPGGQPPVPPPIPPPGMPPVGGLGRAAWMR
T1 sequence (Q16531 2-1140 limits assumed): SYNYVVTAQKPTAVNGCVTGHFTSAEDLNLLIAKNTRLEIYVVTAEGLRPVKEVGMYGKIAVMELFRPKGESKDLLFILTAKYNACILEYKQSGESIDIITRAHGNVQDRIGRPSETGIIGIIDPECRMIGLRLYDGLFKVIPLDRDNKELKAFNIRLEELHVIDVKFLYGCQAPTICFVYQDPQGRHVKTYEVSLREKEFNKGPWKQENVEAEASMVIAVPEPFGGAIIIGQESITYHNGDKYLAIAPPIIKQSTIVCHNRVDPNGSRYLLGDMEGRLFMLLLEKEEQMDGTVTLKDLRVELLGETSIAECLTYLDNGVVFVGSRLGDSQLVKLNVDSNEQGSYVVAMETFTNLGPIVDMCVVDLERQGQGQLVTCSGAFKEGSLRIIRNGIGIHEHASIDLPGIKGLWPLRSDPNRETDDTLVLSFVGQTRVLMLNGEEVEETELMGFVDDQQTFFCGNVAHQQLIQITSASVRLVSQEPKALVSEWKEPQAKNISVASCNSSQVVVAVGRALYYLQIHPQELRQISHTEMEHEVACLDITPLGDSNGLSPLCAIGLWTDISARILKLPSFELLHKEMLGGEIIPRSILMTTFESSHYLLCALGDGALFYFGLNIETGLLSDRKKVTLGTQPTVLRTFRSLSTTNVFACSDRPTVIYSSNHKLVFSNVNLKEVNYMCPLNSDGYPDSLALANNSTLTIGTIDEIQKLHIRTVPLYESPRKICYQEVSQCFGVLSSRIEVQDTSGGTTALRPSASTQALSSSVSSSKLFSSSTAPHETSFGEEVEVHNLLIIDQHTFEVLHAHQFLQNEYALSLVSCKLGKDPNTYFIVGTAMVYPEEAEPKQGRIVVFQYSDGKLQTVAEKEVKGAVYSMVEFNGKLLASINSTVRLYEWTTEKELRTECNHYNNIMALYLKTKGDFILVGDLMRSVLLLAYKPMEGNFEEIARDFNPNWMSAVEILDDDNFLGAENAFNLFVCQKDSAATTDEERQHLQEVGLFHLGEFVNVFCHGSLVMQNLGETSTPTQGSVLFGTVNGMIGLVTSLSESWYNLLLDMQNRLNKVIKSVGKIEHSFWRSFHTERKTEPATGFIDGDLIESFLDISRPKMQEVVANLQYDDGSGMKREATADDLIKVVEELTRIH
How it was run: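 MDA-MB-231 cells treated 5 h with 1 µM cyclin K degrader or DMSO. Lysates digested with LysC and trypsin, then analysed by label-free diaPASEF LC-MS on a TimsTOF Pro2 with directDIA search and MS1 precursor quantification. Protein abundances scaled and analysed with limma.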

HEK293T cells = test: Drug sensitivity assay (CellTiter-Glo viability) with or without MLN4924 pretreatment; assay type: cell-based, human
How it was run: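 First, cells (HEK293T–Cas9, 0.15 × 10^6 ml^−1) are exposed to DMSO or 100 nM MLN4924. Next, drugs follow at 2 h. Finally, CellTiter-Glo is read at day 3 and normalised to DMSO.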

DC50 ([1]; source data sheet correlations, read-out: DC50): 176 nM | pIC50 (CDK12–cyclin K; Lanthascreen, average, Extended Data Fig. 8, read-out: CDK12 IC50): 5.87 | Lanthascreen raw signal, sheet CDK12 (CDK12–cyclin K; compound 0.038147 nM, series r13): 0.01141 and 0.01078 | Lanthascreen raw signal, sheet CDK12 (CDK12–cyclin K; compound 0.038147 nM, series r49): 0.007974 and 0.007894 | Lanthascreen raw signal, sheet CDK12 (CDK12–cyclin K; compound 0.152588 nM, series r13): 0.01172 and 0.01127 | Lanthascreen raw signal, sheet CDK12 (CDK12–cyclin K; compound 0.152588 nM, series r49): 0.009529 and 0.009772 | Lanthascreen raw signal, sheet CDK12 (CDK12–cyclin K; compound 0.610352 nM, series r13): 0.01156 and 0.01218 | Lanthascreen raw signal, sheet CDK12 (CDK12–cyclin K; compound 0.610352 nM, series r49): 0.00969 and 0.009867 | Lanthascreen raw signal, sheet CDK12 (CDK12–cyclin K; compound 9.76563 nM, series r13): 0.01168 and 0.01068 | Lanthascreen raw signal, sheet CDK12 (CDK12–cyclin K; compound 9.76563 nM, series r49): 0.008416 and 0.00874 | Lanthascreen raw signal, sheet CDK12 (CDK12–cyclin K; compound 39.0625 nM, series r13): 0.01187 and 0.01164 | Lanthascreen raw signal, sheet CDK12 (CDK12–cyclin K; compound 39.0625 nM, series r49): 0.009257 and 0.00975 | Lanthascreen raw signal, sheet CDK12 (CDK12–cyclin K; compound 156.25 nM, series r13): 0.01128 and 0.01164 | Lanthascreen raw signal, sheet CDK12 (CDK12–cyclin K; compound 156.25 nM, series r49): 0.009429 and 0.008734 | Lanthascreen raw signal, sheet CDK12 (CDK12–cyclin K; compound 625 nM, series r13): 0.01093 and 0.01047 | Lanthascreen raw signal, sheet CDK12 (CDK12–cyclin K; compound 625 nM, series r49): 0.007601 and 0.007861 | Lanthascreen raw signal, sheet CDK12 (CDK12–cyclin K; compound 2500 nM, series r13): 0.009465 and 0.008988 | Lanthascreen raw signal, sheet CDK12 (CDK12–cyclin K; compound 2500 nM, series r49): 0.006693 and 0.006957 | Lanthascreen raw signal, sheet CDK12 (CDK12–cyclin K; compound 10000 nM, series r13): 0.008087 and 0.007713 | Lanthascreen raw signal, sheet CDK12 (CDK12–cyclin K; compound 10000 nM, series r49): 0.006488 and 0.006166 | CDK13 peptide count (CDK13; label-free quantitative MS, replicate values): 457.834 and 405.628 | CDK13 peptide count (DMSO-normalised) (CDK13; normalised to DMSO = 1, replicate values): 0.6811 and 0.6233
SMILES: C[C@H](C(=O)Nc1nc2ccccc2[nH]1)N1Cc2ccccc2C1=O [compound 919278]
reporter assay signal (normalized) ([1]; 5 nM): 0.9951 and 0.9832 | reporter assay signal (normalized) ([1]; 10.7 nM): 0.9896 and 0.9546 | Normalized GFP/mCheery ([1]; 22.9 nM, HEK293T): 0.8457 | reporter assay signal (normalized) ([1]; 22.9 nM): 0.9344 and 0.9583 | Normalized GFP/mCheery ([1]; 48.9 nM, HEK293T): 0.8139 | reporter assay signal (normalized) ([1]; 48.9 nM): 0.9381 and 0.9234 | Normalized GFP/mCheery ([1]; 105 nM, HEK293T): 0.8144 | reporter assay signal (normalized) ([1]; 105 nM): 0.9087 and 0.8866 | reporter assay signal (normalized) ([1]; 224 nM): 0.8755 and 0.8691 | Normalized GFP/mCheery ([1]; 478 nM, HEK293T): 0.7219 | reporter assay signal (normalized) ([1]; 478 nM): 0.8011 and 0.8332 | reporter assay signal (normalized) ([1]; 2190 nM): 0.7799 and 0.7725 | reporter assay signal (normalized) ([1]; 4680 nM): 0.7431 and 0.7578 | Normalized GFP/mCheery ([1]; 10000 nM, HEK293T): 0.6269 | reporter assay signal (normalized) ([1]; 10000 nM): 0.7256 and 0.8167 | cyclin K reporter degradation, result in words ([1]; HEK293T): weaker | viability assay signal (normalized) (HEK293T cells; 2 nM, + MLN4924): 1.029 and 0.9647 | viability assay signal (normalized) (HEK293T cells; 2 nM, without MLN4924): 1.055 and 1.0418 | viability assay signal (normalized) (HEK293T cells; 4.69 nM, + MLN4924): 1.105 and 1.018 | viability assay signal (normalized) (HEK293T cells; 4.69 nM, without MLN4924): 1.004 and 1.008 | viability assay signal (normalized) (HEK293T cells; 11 nM, + MLN4924): 1.0606 and 0.9151 | viability assay signal (normalized) (HEK293T cells; 11 nM, without MLN4924): 1.048 and 1.059 | viability assay signal (normalized) (HEK293T cells; 25.7 nM, + MLN4924): 1.025 and 1.119 | viability assay signal (normalized) (HEK293T cells; 25.7 nM, without MLN4924): 0.893 and 1.0689 | viability assay signal (normalized) (HEK293T cells; 141 nM, + MLN4924): 1.103 and 1.1762 | viability assay signal (normalized) (HEK293T cells; 141 nM, without MLN4924): 1.0013 and 1.019 | viability assay signal (normalized) (HEK293T cells; 331 nM, + MLN4924): 1.1 and 1.102 | viability assay signal (normalized) (HEK293T cells; 331 nM, without MLN4924): 0.8356 and 0.898 | viability assay signal (normalized) (HEK293T cells; 4270 nM, + MLN4924): 0.7328 and 0.6837 | viability assay signal (normalized) (HEK293T cells; 4270 nM, without MLN4924): 0.374 and 0.3286 | viability assay signal (normalized) (HEK293T cells; 10000 nM, + MLN4924): 0.484 and 0.4101 | viability assay signal (normalized) (HEK293T cells; 10000 nM, without MLN4924): 0.3001 and 0.3205 | pEC50 (HEK293T cells; Homo sapiens, HEK-293T, Supplementary Table 2, HEK293T viability, 72 h, compound alone, read-out: Cellular assays EC50): 6.25 | Toxicity rescue (HEK293T cells; Supplementary Table 2, MLN4924-mediated cytotoxicity rescue, 10 µM used where n.d.): 749%
